Measurements from the NIST ThermoML archive (doi:10.1021/je300673m).

Assay: mn = molality of the nth substance listed, in mol/kg
Details: 101 kPa, Liquid

O=P([O-])([O-])O.[K+].[K+] [dipotassium hydrogen phosphate] + O
viscosity [mPa·s]
Details | 288.15 K | 298.15 K | 308.15 K | 318.15 K
m1 = 0.2 | 1.201 | 0.953 | 0.781 | 0.659
m1 = 0.4 | 1.329 | 1.057 | 0.867 | 0.73
m1 = 0.6 | 1.409 | 1.118 | 0.916 | 0.77
m1 = 0.8 | 1.534 | 1.217 | 0.997 | 0.833
